Laboratory results reported in patent US20090131513A1, “ANTI-INFLAMMATORY MODALITIES” (Novogen Research Pty Ltd., priority 2005, published 2009).

Columns and labels:
NFκB promoter activity = experiment: Inhibition of NFκB promoter activity (β-lactamase reporter) in TNFα-stimulated THP-1 cells; assay type: cell-based, human; details: 5 h
Description: Human macrophage THP-1 cells, modified to include the β-lactamase reporter gene, were seeded into wells of a 96-well plate (50×10^3 cells/well) in the presence of RPMI 1640 medium (70 μl). TNFα (7.5 ng/ml) and human sera (final concentration of 20%) were added to each well. Plates were incubated for 5 h at 37° C. to allow for NFkB-stimulated β-lactamase production. LiveBLAzer™ FRET B/G Substrate (CCF4-AM) was then added to assay for β-lactamase activity. Once CCFA-AM enters a cell, it is converted to negatively charged CCF4 by endogenous esterases. Excitation of this substrate at 409 nm leads to efficient FRET between the coumarin and fluorescein moieties, resulting in a green fluorescence detectable at 530 nm. The presence of β-lactamase leads to cleavage of CCF4 and results in a loss of FRET, resulting in a robust blue fluorescent signal detectable at 460 nm. Thus, activity of beta-lactamase (a marker of NFkB-promoter activity) is measured as a product to substrate ratio (blue/green fluorescence ratio: 460 nm/530 nm).

[1] = Stability of formulation in CMC 0.1%; assay type: physicochemical; details: seven day period, 4° C., 25° C. and 40° C.
Description: The formulation of Compound 1 in CMC 0.1% was stable over a seven day period at both 4° C., 25° C. and 40° C. Fresh batches of Compound 1 were supplied after day seven. Bodyweights were measured immediately before administration, then at day eight and again at culling on day 12. All rats were observed daily for signs of toxicity throughout the experimental period. At necropsy, gross examination of the external surface of the body, all orifices and the thoracic and abdominal cavities and their contents was carried out. Liver, kidney, adrenals, spleen and gonads were weighed. Terminal hematology, serum biochemistry and histology of the liver, spleen and bone marrow was done.

[2] = test system: eicosanoid synthesis by the inflamed colon; experiment: PGE2 and TXB2 production by cultured colons from DSS colitis mice (Experiment 4); assay type: in vivo
Description: Groups of mice (n=5) were dosed once daily with Compound 11 mg/kg or vehicle throughout the experiment, and killed either on day 6, 9 or 13. Colons were removed, opened longitudinally and washed in PBS with pen/strep (100 U/ml/100 μg/ml, Invitrogen) with added fungizone (2.5 ug/ml, Invitrogen). They were then cut into small portions and approximately 100 mg colon was placed into one well of a 24-well plate either in the presence or absence of ConA (10 μg/ml, Sigma) containing 1 ml modified RPMIc (pen/strep and fungizone as above) for 18-24 hours. Supernatant was collected, centrifuged and stored at −80° C. PGE2 and TXB2 in the culture supernatants were measured in triplicate by ELISA (Cayman Chemical).

Oc1ccc(C2COc3c(ccc(O)c3O)C2O)cc1 (centres unmarked) [Compound 2]
inhibition of NFκB compared to vehicle control (NFκB promoter activity): significantly (p<0.001) inhibited

O=C1c2ccc(O)c(Br)c2OCC1c1ccc(O)cc1 (centres unmarked) [Compound 1, 3-(4-hydroxyphenyl)-7-hydroxy-8-bromo-chroman-4-one]
stability of the formulation [1]: stable | PGE2 and TXB2 responses of colons cultured in the presence of ConA ([2]; ConA 10 μg/ml): reduce these responses, although not significantly so | TXB2 production by colons versus DSS + vehicle ([2]; cultured in the absence of mitogenic stimulation, day 6 and day 9 (p<0.05)): less TXB2 | PGE2 production by colons versus DSS + vehicle ([2]; cultured in the absence of mitogenic stimulation, day 9 and day 13): less PGE2
